According to patent publication EP1170365A1, “Member of the ion channel family of polypeptides; vanilrep4” (SMITHKLINE BEECHAM PLC, priority 2000, dated 2002):

How the values were obtained:
Assay type in all cases: cell-based
[1] = molecular target: T1, hVR1 (Homo sapiens, UniProt Q8NER1); experiment: cell-based; settings: for activity at VR1: result in words
T1 construct: expressed in transfected cells; host or cells: HEK293 (transient)

[2] = molecular target: T2, hVR4 (Homo sapiens, UniProt Q9HBA0); experiment: FLIPR intracellular calcium assay (Fluo-3) in HEK293 cells transiently expressing hVR4; settings: for effect on intracellular calcium: HEK293-hVR4 cells, result in words
T2 construct: expressed in transfected cells; host or cells: HEK293 (transient)
Description: HEK293 cells transiently expressing hVR1 or hVR4 were seeded into FLIPR96 plates at 25,000cells/well and cultured overnight. The cells were then loaded in medium containing 4microM Fluo-3 for 2hrs, at room temperature, in the dark. The cell plates were then washed 4x with Tyrode containing 1.5mM calcium and 0.2% BSA. Agonist and antagonist plates were prepared in the same buffer. Cells were preincubated with either antagonist or buffer at room temperature for 30 mins. Agonists additions and calcium measurements were made in the FLIPR (Smart et al., (2000) Br J. Pharmacol. 129, 227-230).

[3] = system: cells transfected with empty vector; experiment: FLIPR intracellular calcium assay (Fluo-3) in HEK293 cells transfected with empty vector; settings: result in words
[4] = system: wild type HEK293 cells; experiment: FLIPR intracellular calcium assay (Fluo-3) in wild type HEK293 cells; settings: result in words

T2 sequence (Q9HBA0 whole entry): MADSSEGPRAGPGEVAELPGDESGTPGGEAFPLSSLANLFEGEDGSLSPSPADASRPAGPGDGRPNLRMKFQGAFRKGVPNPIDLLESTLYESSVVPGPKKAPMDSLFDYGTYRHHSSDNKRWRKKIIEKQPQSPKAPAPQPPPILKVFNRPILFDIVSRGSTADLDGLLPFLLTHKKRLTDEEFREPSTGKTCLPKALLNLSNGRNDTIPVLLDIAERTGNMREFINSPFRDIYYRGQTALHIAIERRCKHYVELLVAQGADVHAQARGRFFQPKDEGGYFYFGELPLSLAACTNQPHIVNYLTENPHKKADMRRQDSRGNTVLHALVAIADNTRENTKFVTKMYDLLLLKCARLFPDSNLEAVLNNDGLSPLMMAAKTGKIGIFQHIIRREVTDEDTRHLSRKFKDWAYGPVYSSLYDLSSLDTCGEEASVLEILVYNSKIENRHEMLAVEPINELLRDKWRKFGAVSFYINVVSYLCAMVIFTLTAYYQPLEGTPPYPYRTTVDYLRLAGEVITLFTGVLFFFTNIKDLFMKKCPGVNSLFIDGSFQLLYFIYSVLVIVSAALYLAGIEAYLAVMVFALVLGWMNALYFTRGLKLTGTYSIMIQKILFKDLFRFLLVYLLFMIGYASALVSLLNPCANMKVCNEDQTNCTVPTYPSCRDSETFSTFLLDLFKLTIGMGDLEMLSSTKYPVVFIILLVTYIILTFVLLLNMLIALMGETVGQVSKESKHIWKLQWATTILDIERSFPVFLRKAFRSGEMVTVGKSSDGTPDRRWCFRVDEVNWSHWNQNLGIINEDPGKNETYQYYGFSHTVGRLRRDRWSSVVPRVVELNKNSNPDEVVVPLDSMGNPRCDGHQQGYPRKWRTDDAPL
T1 sequence (Q8NER1 whole entry): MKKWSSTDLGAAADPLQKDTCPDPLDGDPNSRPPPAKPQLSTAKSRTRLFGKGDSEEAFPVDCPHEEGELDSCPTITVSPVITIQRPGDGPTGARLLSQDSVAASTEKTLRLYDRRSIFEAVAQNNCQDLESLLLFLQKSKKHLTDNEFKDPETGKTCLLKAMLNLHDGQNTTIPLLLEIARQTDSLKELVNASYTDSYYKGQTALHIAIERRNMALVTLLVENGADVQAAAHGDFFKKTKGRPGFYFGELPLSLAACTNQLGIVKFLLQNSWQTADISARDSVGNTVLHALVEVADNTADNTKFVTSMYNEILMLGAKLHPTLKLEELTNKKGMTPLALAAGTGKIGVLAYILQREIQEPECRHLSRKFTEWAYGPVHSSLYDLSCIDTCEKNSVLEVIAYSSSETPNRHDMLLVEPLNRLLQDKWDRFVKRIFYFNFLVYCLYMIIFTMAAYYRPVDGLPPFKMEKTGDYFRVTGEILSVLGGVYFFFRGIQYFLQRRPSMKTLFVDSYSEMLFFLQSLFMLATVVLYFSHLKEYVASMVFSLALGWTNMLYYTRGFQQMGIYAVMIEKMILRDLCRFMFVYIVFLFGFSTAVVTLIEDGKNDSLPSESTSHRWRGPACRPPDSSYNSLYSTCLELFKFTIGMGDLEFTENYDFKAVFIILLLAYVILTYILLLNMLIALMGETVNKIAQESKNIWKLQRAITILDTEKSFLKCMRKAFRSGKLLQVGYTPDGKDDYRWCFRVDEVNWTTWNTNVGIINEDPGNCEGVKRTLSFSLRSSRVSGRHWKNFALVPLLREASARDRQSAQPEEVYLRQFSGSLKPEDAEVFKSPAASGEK

Compound | activity at VR1 ([1]; VR1) | effect on intracellular calcium [2] | pEC50 ([2]; HEK293 cells expressing hVR4, mean±s.e.mean, n=3-5, IA= inactive) | selectivity ([2]; VR4 versus VR1, conclusion in words) | effect on intracellular calcium [3] | effect on intracellular calcium [4] | EC50 [1] [µM] | Emax ([1]; VR1, compared to capsaicin and RTX) | EC50 [2] [µM]
CCCCCCCCCC(=O)O[C@@H]1[C@@H](C)[C@@]2(O)[C@@H](C=C(CO)C[C@@]3(O)C(=O)C(C)=C[C@@H]23)[C@@H]2C(C)(C)[C@]12OC(=O)CCCCCCCCC [4αPDD, 4α-phorbol-12,13-didecanoate] | inactive | increased intracellular calcium | 5.73±0.06 | VR4 selective agonist | without effect | without effect | – | – | –
CCCCCCCCCCCCCC(=O)O[C@@H]1[C@@H](C)[C@@]2(O)[C@@H](C=C(CO)C[C@]3(O)C(=O)C(C)=C[C@@H]23)[C@@H]2C(C)(C)[C@]12OC(C)=O [PMA, phorbol 12-myristate 13-acetate] | partial agonist | increased intracellular calcium | – | – | without effect | without effect | 0.0138 | 0.46 | 0.229
C=C(C)C12CC(C)C34OC(Cc5ccccc5)(OC1C3C=C(COC(=O)Cc1ccc(O)c(OC)c1)CC1(O)C(=O)C(C)=CC14)O2 (centres unmarked) [RTX] | – | – | – | – | – | – | 0.00117 | – | –
